Experimental data taken from ChEMBL document CHEMBL1145076, “Synthesis and activity of new aryl- and heteroaryl-substituted pyrazole inhibitors of the transforming growth factor-beta type I receptor kinase domain” (J Med Chem, 2003).

Experiments:
[1] = target: Mitogen-activated protein kinase 14 (Homo sapiens, UniProt Q16539); test: In vitro inhibitory activity against Mitogen-activated protein kinase p38
TGF-beta receptor type-1 [2] = target: T1, TGF-beta receptor type-1 (Homo sapiens, UniProt P36897); test: In vitro inhibitory activity against human Transforming growth factor beta-1 receptor kinase (TGF-beta RIK)
T1 sequence (P36897 whole entry): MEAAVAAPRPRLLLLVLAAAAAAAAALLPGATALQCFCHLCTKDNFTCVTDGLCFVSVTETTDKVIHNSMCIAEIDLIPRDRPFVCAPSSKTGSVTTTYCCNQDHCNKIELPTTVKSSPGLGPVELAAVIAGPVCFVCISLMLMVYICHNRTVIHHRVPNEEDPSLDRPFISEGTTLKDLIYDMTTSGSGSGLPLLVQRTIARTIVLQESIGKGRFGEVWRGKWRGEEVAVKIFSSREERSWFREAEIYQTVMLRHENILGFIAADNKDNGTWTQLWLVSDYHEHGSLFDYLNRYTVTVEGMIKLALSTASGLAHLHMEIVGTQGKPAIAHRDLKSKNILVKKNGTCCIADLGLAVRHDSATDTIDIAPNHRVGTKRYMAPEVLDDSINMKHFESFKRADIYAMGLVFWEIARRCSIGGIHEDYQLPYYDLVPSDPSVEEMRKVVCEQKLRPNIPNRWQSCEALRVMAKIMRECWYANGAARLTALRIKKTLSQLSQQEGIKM

TGF-beta receptor type-1 [3] = target: T1, TGF-beta receptor type-1; test: In vitro inhibition of transforming growth factor- beta dependent luciferase production in mink lung cells (p3TP Lux); type: functional, cell-based
TGF-beta receptor type-1 [4] = target: T1, TGF-beta receptor type-1; test: In vitro inhibition of transforming growth factor- beta dependent luciferase growth in mouse fibroblasts (NIH 3T3); type: functional; conditions: target entry is the homologue from another species

Mitogen-activated protein kinase 14, sequence (Q16539 whole entry): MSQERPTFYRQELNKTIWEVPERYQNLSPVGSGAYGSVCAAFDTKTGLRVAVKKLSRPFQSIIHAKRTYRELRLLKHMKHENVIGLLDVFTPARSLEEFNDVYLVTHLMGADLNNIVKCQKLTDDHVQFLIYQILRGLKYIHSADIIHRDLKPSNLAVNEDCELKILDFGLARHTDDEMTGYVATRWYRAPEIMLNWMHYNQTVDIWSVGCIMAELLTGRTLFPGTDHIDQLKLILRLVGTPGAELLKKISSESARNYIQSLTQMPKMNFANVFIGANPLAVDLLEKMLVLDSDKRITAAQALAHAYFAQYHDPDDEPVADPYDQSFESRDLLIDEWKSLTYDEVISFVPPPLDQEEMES

Row | Compound | IC50 [1] [nM] | IC50 (TGF-beta receptor type-1 [2]) [nM] | IC50 (TGF-beta receptor type-1 [3]) [nM] | IC50 (TGF-beta receptor type-1 [4]) [nM]
1 | Cc1cccc(-c2n[nH]cc2-c2ccc(O)cc2)n1 | 560 | 31 | 44 | 32
2 | Cc1cccc(-c2[nH]ncc2-c2ccc(Cl)cc2)n1 | > 20000 | 57 | 551 | 421
3 | Cc1cccc(-c2n[nH]cc2-c2ccc(F)cc2)n1 | > 20000 | 70 | 139 | 41
4 | c1ccc(Cn2cc(-c3ccnc4ccccc34)c(-c3ccccn3)n2)cc1 | 510 | 369 | 399 | 1340
5 | c1ccc(-c2n[nH]cc2-c2ccnc3ccccc23)cc1 | 25 | 382 | 1200 | 2920
6 | Cc1cccc(-c2[nH]ncc2-c2ccc(F)c(F)c2)n1 | > 20000 | 151 | 788 | 683
7 | Cc1cccc(-c2n[nH]c(C)c2-c2ccnc3ccccc23)n1 | 250 | 82 | 24 | 148
8 | c1ccc(-c2c[nH]nc2-c2ccccn2)cc1 | > 20000 | 3990 | > 9000 | 9540
9 | Cc1cccc(-c2n[nH]cc2-c2ccccc2)n1 | > 20000 | 543 | 3370 | 2160
10 | Cc1cccc(-c2n[nH]cc2-c2ccnc3ccccc23)n1 | 78 | 34 | 2.9 | 7.1
11 | FC(F)(F)c1cccc(-c2n[nH]cc2-c2ccnc3ccccc23)c1 | 6.8 | 217 | 355 | 524
12 | COc1ccc(-c2cn(C)nc2-c2cccc(C)n2)cc1 | 5400 | 44 | 47 | 61
13 | c1csc(-c2n[nH]cc2-c2ccnc3ccccc23)c1 | 400 | 353 | 1660 | 2810
14 | c1ccc(-c2n[nH]cc2-c2ccnc3ccccc23)nc1 | 740 |  |  | 
15 | Fc1ccc(-c2c[nH]nc2-c2ccccn2)cc1 | 6800 | 275 | 3530 | 2590
16 | c1ccc(-c2n[nH]c(C3CC3)c2-c2ccnc3ccccc23)nc1 | 280 | 203 | 94 | 538
17 | c1ccc(-c2c[nH]nc2-c2ccnc3ccccc23)nc1 | 7700 | 150 | 683 | 1680
18 | Fc1ccc(-c2n[nH]cc2-c2ccnc3ccccc23)nc1 | 1300 | 91 | 94 | 76
19 | Brc1cccc(-c2n[nH]cc2-c2ccnc3ccccc23)n1 | 110 | 31 | 2.9 | 1.2
20 | Clc1ccc(-c2n[nH]cc2-c2ccnc3ccccc23)nc1 | 2300 | 1760 | > 10000 | 4670
